Test results: PMC8222254, “Self-assembly of an anion receptor with metal-dependent kinase inhibition and potent in vitro anti-cancer properties” (Nature Communications, 2021)
“And” between values parts separate entries of the source, which are not always exact repeats. Identical values can stand only once. Like-named read-outs stand apart in the source and are kept apart here.

How the values were obtained:
Assay in all cases: Chemosensitivity, 96 h continuous exposure, MTT assay
Format in all cases: cell-based, human
[1] = tested on: HCT116 p53-/-; conditions: for SI (ARPE19): mean IC50 ARPE-19 / mean IC50 HCT116 p53-/-; for Selectivity index (ARPE19): IC50 ARPE-19 / IC50 HCT116 p53-/-
From the text: (§1) All cell lines were purchased from and maintained as monolayers as described by the American Type Culture Collection with the exception of the p53^+/+ and p53^−/− isogenic clones of HCT116 human colorectal adenocarcinoma cells which were a kind gift from Professor Bert Vogelstein[54]. GBM1 cells were established from a primary GBM tumour by Heiko Wurdak and colleagues[32],[33]. Non-cancerous adult brain neural progenitor (NP1) cells were derived from a patient undergoing surgery to treat epilepsy[32],[33]. Cell culture and growth media for NP1 and GBM1 cells were as described[32],[33]. The response of cells following a continuous 96-h exposure to test compounds and platinates was determined using the MTT assay. Potency was recorded as the IC50 and the selectivity index (SI) was defined as the ratio of IC50 values for non-cancer to cancer cell lines with values >1 representing selectivity for cancer cells as opposed to non-cancer cells.
(§2) All cell lines used were maintained at low passage in antibiotic-free media. HT29, DLD-1, HCT116 p53^+/+ and HCT116 p53^−/− are all colorectal adenocarcinoma cell lines derived from different individuals and harbour different combinations of oncogenic lesions (except for the HCT116 isogenic cancer cell clones that are genetically identical except for p53 status). PSN-1, BxPC-3 and MiaPaCa2 are pancreatic carcinoma cell lines and A549 and H460 are lung carcinoma cell lines. HT29, DLD-1, PSN-1, BxPC-3, A549 and H460 cell lines were cultured in RPMI-1640 growth media (Sigma) containing 2 mM L-glutamine, 1 mM sodium pyruvate and 10% foetal bovine serum (FBS). HCT116 (p53^+/+ and p53^−/−) and MiaPaCa2 cell lines were cultured in Dulbecco’s Modified Eagle’s Medium (Sigma), 2 mM L-glutamine and 10% FBS. The ARPE-19 retinal epithelial non-cancer cell line was cultured in DMEM/F12 media (Gibco), 2 mM L-glutamine, 1 mM sodium pyruvate and 10% FBS. The MCF10A non-cancerous human breast epithelial cell line was cultured in Minimal Essential Media Eagle (Sigma), 2 mM L-glutamine, 1 mM sodium pyruvate, 10% FBS and 1x non-essential amino acids (NEAA). NP1 and GBM1 cells were cultured on plasticware coated with poly-L-ornithine (5 µg/ml) and laminin (2.4 µg/ml)[32],[33]. NP1 cells were grown in DMEM/F12 media (Gibco) supplemented with 5% FBS, 20 ng/ml hFGF, 20 ng/ml rhEGF, 0.5x B-27 supplement (Gibco), 0.5x N-2 supplement (Gibco) and 1x GLUTAMAX (Gibco). GBM1 cells were cultured in Neurobasal media (Gibco) supplemented with 40 ng/ml hFGF, 40 ng/ml rhEGF, 0.5x B-27 supplement (Gibco) and 0.5x N-2 supplement (Gibco).
(§3) [L2(Metal)3]^6+ and all the other self-assembling complexes were freshly formed by adding DMSO to individual components and mixing together by pipetting. These were then further diluted in cell culture media such that the final DMSO concentration that cells were exposed to was 0.2% (vehicle control). Cisplatin, oxaliplatin and carboplatin were dissolved in phosphate buffered saline. Cell lines were seeded into 96 well plates at 2 × 10^3 cells per well and incubated overnight at 37 °C. GBM1 cancer stem-like cells were seeded at 3 × 10^3 cells per well and NP1 neural progenitors were seeded at 1.5 × 10^3 cells per well. The following day, media was removed and replaced with fresh media containing test compounds at a range of concentrations. Cells were incubated with test compounds for a further 96 h after which the media was removed and replaced with fresh media (200 μl/well). MTT was added (20 μl at 5 mg/ml) and cells were incubated for a further 4 h. Media and MTT were removed and formazan crystals were dissolved in 150 μl of DMSO and the absorbance of the resulting solution determined at 540 nm. Dose response curves were constructed, and the concentration required to reduce cell growth by 50% (IC50) determined.

[2] = tested on: HCT116 p53+/+; conditions: for SI (ARPE19): mean IC50 ARPE-19 / mean IC50 HCT116 p53+/+; for Selectivity index (ARPE19): IC50 ARPE-19 / IC50 HCT116 p53+/+
From the text: as §1, §2, §3

[3] = tested on: ARPE-19 non-cancer cells
From the text: as §1, §2, §3

[4] = tested on: MiaPaCa2; conditions: for IC50: MiaPaCa2, 96 h, MTT; for SI (ARPE19): mean IC50 ARPE-19 / mean IC50 MiaPaCa2
From the text: as §1, §2, §3

[5] = HCT116 p53-/-, 96 h, MTT, individual run, read-out: IC50 values for each replicate
[6] = HCT116 p53-/-, 96 h, MTT, mean of at least 3 independent experiments, read-out: Mean IC50
[7] = HCT116 p53+/+, 96 h, MTT, individual run, read-out: IC50 values for each replicate
[8] = HCT116 p53+/+, 96 h, MTT, mean of at least 3 independent experiments, read-out: Mean IC50
[9] = ARPE-19, 96 h, MTT, individual run, read-out: IC50 values for each replicate
[10] = ARPE-19, 96 h, MTT, mean of at least 3 independent experiments, read-out: Mean IC50
[11] = individual run, read-out: IC50 values for each replicate
[12] = mean of at least 3 independent experiments, read-out: Mean IC50
[13] = HCT116 p53-/-, individual replicate experiments, read-out: IC50 values
[14] = HCT116 p53+/+, individual replicate experiments, read-out: IC50 values
[15] = ARPE19, individual replicate experiments, read-out: IC50 values
[16] = HCT116 p53-/-, read-out: Mean IC50 values
[17] = HCT116 p53+/+, read-out: Mean IC50 values
[18] = ARPE-19 non-cancer, read-out: Mean IC50 values

Structure (SMILES): N.N.O=C([O-])C1(C(=O)[O-])CCC1.[Pt+2] [Carboplatin, carboplatin, reference compound]
- IC50 [1, 5]: 45.8 µM and 28.2 µM and 33.1 µM
- IC50 [1, 6]: 35.7 µM
- SI (ARPE19) [1]: 2.177
- IC50 [2, 7]: 43.3 µM and 21 µM and 32.9 µM
- IC50 [2, 8]: 32.4 µM
- SI (ARPE19) [2]: 2.401
- IC50 [3, 9]: 87.6 µM and 79 µM and 66.6 µM
- IC50 [3, 10]: 77.7 µM
- IC50 [4, 11]: 30.3 µM and 44.7 µM and 31.8 µM
- IC50 [4, 12]: 35.6 µM
- SI (ARPE19) [4]: 2.184

Structure (SMILES): N.N.[Cl][Pt][Cl] [Cisplatin, cisplatin, reference compound]
- IC50 [1, 5]: 7.14 µM and 7.16 µM and 8.27 µM
- IC50 [1, 6]: 7.52 µM
- SI (ARPE19) [1]: 0.852
- IC50 [2, 7]: 2.84 µM and 3.35 µM and 3.58 µM
- IC50 [2, 8]: 3.26 µM
- SI (ARPE19) [2]: 1.966
- IC50 [3, 9]: 6.07 µM and 7.48 µM and 5.69 µM
- IC50 [3, 10]: 6.41 µM
- IC50 [4, 11]: 3.69 µM and 2.84 µM and 4.32 µM
- IC50 [4, 12]: 3.62 µM
- SI (ARPE19) [4]: 1.771

Structure (SMILES): c1ccc(-c2csc(NCCN(CCNc3nc(-c4ccccc4)cs3)CCNc3nc(-c4ccccc4)cs3)n2)cc1 [L]
- IC50 [1, 13]: 0.074 µM and 0.081 µM
- IC50 ([1]; Homo sapiens, HCT-116, HCT116 p53-/-, individual replicate experiments, read-out: IC50 values): 0.054 µM
- IC50 ([1]; Homo sapiens, HCT-116, HCT116 p53-/-, read-out: Mean IC50 values): 0.07 µM
- Selectivity index (ARPE19) [1]: 77.506
- IC50 [2, 14]: 0.173 µM and 0.524 µM and 0.141 µM
- IC50 ([2]; Homo sapiens, HCT-116, HCT116 p53+/+, read-out: Mean IC50 values): 0.279 µM
- Selectivity index (ARPE19) [2]: 19.369 and 19.36
- IC50 [3, 15]: 4.96 µM and 6.38 µM
- IC50 ([3]; Homo sapiens, ARPE-19, ARPE19, individual replicate experiments, read-out: IC50 values): 4.89 µM
- IC50 ([3]; Homo sapiens, ARPE-19, ARPE-19 non-cancer, read-out: Mean IC50 values): 5.41 µM

Structure (SMILES): O=C1[O][Pt]2([NH][C@@H]3CCCC[C@H]3[NH]2)[O]C1=O [Oxaliplatin, oxaliplatin, reference compound]
- IC50 [1, 5]: 5.46 µM and 2.46 µM and 3.06 µM
- IC50 [1, 6]: 3.67 µM
- SI (ARPE19) [1]: 0.850
- IC50 [2, 7]: 1.05 µM and 0.89 µM and 0.84 µM
- IC50 [2, 8]: 0.93 µM
- SI (ARPE19) [2]: 3.355
- IC50 [3, 9]: 2.83 µM and 3.1 µM and 3.39 µM
- IC50 [3, 10]: 3.12 µM
- IC50 [4, 11]: 5.23 µM and 7.06 µM and 7.02 µM
- IC50 [4, 12]: 6.44 µM
- SI (ARPE19) [4]: 0.484

Structure (SMILES): [Cu+2].c1ccc(-c2csc(NCCN(CCNc3nc(-c4ccccn4)cs3)CCNc3nc(-c4ccccn4)cs3)n2)nc1 [[LCu]2+]
- IC50 [1, 13]: 0.049 µM and 0.045 µM and 0.083 µM
- IC50 [1, 16]: 0.059 µM
- Selectivity index (ARPE19) [1]: 100.09
- IC50 [2, 14]: 0.512 µM and 0.583 µM and 0.251 µM
- IC50 [2, 17]: 0.449 µM
- Selectivity index (ARPE19) [2]: 13.19
- IC50 [3, 15]: 5.93 µM and 5.5 µM and 6.33 µM
- IC50 [3, 18]: 5.92 µM

Structure (SMILES): [Zn+2].c1ccc(-c2csc(NCCN(CCNc3nc(-c4ccccn4)cs3)CCNc3nc(-c4ccccn4)cs3)n2)nc1 [[LZn]2+]
- IC50 [1, 13]: 0.054 µM and 0.063 µM and 0.087 µM
- IC50 [1, 16]: 0.068 µM
- Selectivity index (ARPE19) [1]: 74.47
- IC50 [2, 14]: 0.483 µM and 0.549 µM and 0.244 µM
- IC50 [2, 17]: 0.425 µM
- Selectivity index (ARPE19) [2]: 11.94
- IC50 [3, 15]: 5.39 µM and 4.76 µM and 5.09 µM
- IC50 [3, 18]: 5.08 µM
